Laboratory results: US7396666B2, “Glycosyltransferase, nucleic acid encoding the glycosyltransferase and method of testing canceration using the nucleic acid” (National Institute of Advanced Industrial Science and …, priority 2002, dated 2008)
“Also recorded” adds a separate entry of the source. Like-named read-outs stand apart in the source and are kept apart here.

Tests used:
Assay type in all cases: biochemical
[1] = target: T1, G9 polypeptide (Homo sapiens, UniProt Q7Z7M8); assay: Divalent metal ion requirement of G9 enzyme activity
T1 construct: made in house
T1 sequence (Q7Z7M8 26-397): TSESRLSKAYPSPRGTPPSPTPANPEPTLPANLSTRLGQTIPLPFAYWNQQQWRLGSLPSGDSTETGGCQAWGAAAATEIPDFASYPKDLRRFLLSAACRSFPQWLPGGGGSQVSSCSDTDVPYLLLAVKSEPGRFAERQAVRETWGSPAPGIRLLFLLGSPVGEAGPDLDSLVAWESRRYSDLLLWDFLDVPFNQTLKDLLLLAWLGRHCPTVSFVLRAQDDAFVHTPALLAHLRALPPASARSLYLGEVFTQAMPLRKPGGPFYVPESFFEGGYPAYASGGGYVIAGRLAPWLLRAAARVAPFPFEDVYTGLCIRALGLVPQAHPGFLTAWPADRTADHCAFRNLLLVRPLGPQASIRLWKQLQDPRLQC

[2] = target: T1, G9 polypeptide; assay: β1,3-N-acetylglucosaminyltransferase activity with synthetic mono-/oligosaccharide acceptor substrates ([14C]UDP-GlcNAc donor, scintillation counting); conditions: for transferring activity for acceptor substrate (in words): GlcNAc transfer by G9 to synthetic acceptor substrates; for Relative activity: Substrate specificity of G9, 10 μM acceptor substrate, UDP-GlcNAc donor, 37° C., usually 16 hours, ND = not detected
Experimental: The FLAG peptide-fused G9 polypeptide obtained in the example above was measured for a β1,3-N-acetylglucosaminyltransferase activity with monosaccharaide/oligosaccharide/glycolipid/glycoprotein as substrates according to known methods (e.g., the above-described references and FEBS, 462, 289 (1999), J. Biol. Chem. 269, 14730-14737 (1994), J. Biol. Chem., 267, 23507 (1992), and J. Biol. Chem., 267, 2994 (1992)).
pNp-α-Glc, pNp-β-Glc, pNp-α-GlcNAc, pNp-β-GlcNAc, pNp-α-Gal, oNp-β-Gal, pNp-α-GalNAc, pNp-α-Xyl, oNp-β-Xyl, pNp-α-Fuc, Bz-α-Man, Bz-α-ManNAc, core1-α-pNp, core3-α-pNp, Bz-β-lactoside, GlcNAcβ1-4GlcNAcβ-Bz, and Galβ1-4GlcNAcα-pNp were used as acceptor substrates (see Table 5). These substrates can be purchased from, for example, Sigma Corp. or Toronto Research Chemicals Inc.
A basic reaction solution in the case of using a radiolabeled substrate as the donor substrate comprises 20 μl in total of 14 mM HEPES buffer (pH 7.4), 10 mM MnCl2, 0.15% Triton CF-54, 0.75 mM ATP, 50 μM UDP-GlcNAc (manufactured by Sigma), 4.5 μM (50 nCi) [^14C]UDP-GlcNAc (manufactured by Amersham Biosciences), 10 μM substrate (each of the above-described acceptor substrates), and an appropriate amount (5 to 10 μl) of the purified enzyme protein (enzyme source obtained in Example 4). Enzyme reaction was carried out at 37° C. for several hours up to 16 hours (usually for 16 hours).
After the completion of reaction, the resulting solution was supplemented with 200 μl of 0.1M KCl and lightly centrifuged, and then a supernatant was obtained. After being washed once with 10 ml of methanol, the supernatant was loaded onto Sep-Pak C18 Cartridge (Waters) equilibrated by two-time washing with 10 ml of 0.1 M KCl, and the substrate and a product in the supernatant were adsorbed in the cartridge. After the cartridge was washed twice with 1 ml of pure water for HPLC, the adsorbed substrate and product were eluted with 1 ml of methanol. Following the mixing with a liquid scintillator (ACSII; manufactured by Amersham Biosciences), the amount of radiation from the product was measured with a scintillation counter.

[3] = target: T1, G9 polypeptide; assay: Buffer and pH dependence of G9 enzyme activity
Experimental: Buffer conditions were investigated using the same reaction solution and reaction time as above but using HEPES (pH 6.75 to 7.4) and sodium cacodylate (pH 6.4 to 7.2) instead of 14 mM HEPES buffer (pH7.4) (see FIG. 2A).

[4] = target: T1, G9 polypeptide; assay: Activity measurement with glycoproteins as acceptor substrates (SDS-PAGE, autoradiography, glycopeptidase F digestion); conditions: 40 μg acceptor glycoprotein, 37° C., FIG. 4
Experimental: Enzyme reaction was carried out with glycoproteins as substrates. A reaction solution comprised 20 μl in total of 14 mM HEPES buffer (pH 7.4), 10 mM MnCl2, 0.15% Triton CF-54, 0.75 mM ATP, 50 μM UDP-GlcNAc (manufactured by Sigma), 4.5 μM (50 nCi) [^14C]UDP-GlcNAc (manufactured by Amersham Biosciences), 40 μg of an acceptor substrate, and an appropriate amount (5 to 10 μl) of a purified enzyme protein. A αl-acid glycoprotein (orosomucoid; manufactured by Sigma), ovalbumin (manufactured by Sigma), or ovomucoid (manufactured by Sigma) was used as the above described acceptor substrate. The enzyme purified with the anti-FLAG M1 antibody affinity gel in Example 4 was used as the above-described purified enzyme protein.
Reaction was carried out at 37° C. for several hours up to 16 hours. A portion of a reaction product was subjected to enzyme digestion with glycopeptidase F (GPF; manufactured by TAKARA) according to the instruction. The samples both before and after enzyme digestion were analyzed by 10% SDS-PAGE (see FIG. 4).

[5] = metal ions at 2.5, 10 and 40 mM instead of 10 mM MnCl2, FIG. 2B

`[Cl][Ni][Cl]` [Ni, NiCl2] was tested, and the “effect of divalent metal ion on G9 activity (in words)” value (“effect of divalent metal ion” for short) [1, 5] was “slight enhancing effect”.

With `[Cl][Cd][Cl]` [Cd, CdCl2] the “effect of divalent metal ion” value [1, 5] was “slight enhancing effect”.

For `[Cl][Mn][Cl]` [Mn ion, MnCl2], the “effect of divalent metal ion” value [1, 5] was “particularly remarkably enhanced”.

With `[Cl-].[Cl-].[Co+2]` [Co ion, CoCl2] the “effect of divalent metal ion” value [1] was “significantly enhanced”.

For `[Cl-].[Cl-].[Mg+2]` [Mg, MgCl2], the “effect of divalent metal ion” value [1, 5] was “no enhancing effect is substantially observed”.

`OC[C@H]1O[C@@H](O[C@H]2[C@H](O)[C@@H](O)[C@H](OCc3ccccc3)O[C@@H]2CO)[C@H](O)[C@@H](O)[C@H]1O` [Lactoside β-Bz] was tested, and the “transferring activity for acceptor substrate (in words)” value ([2]; listed as Bz-β-lactoside) was “significant activity; also recorded: a certain amount of transferring activity” and the Relative activity [2] was 27%.

For `CC(=O)N[C@H]1[C@@H](Oc2ccc([N+](=O)[O-])cc2)O[C@H](CO)[C@@H](O[C@@H]2O[C@H](CO)[C@H](O)[C@H](O)[C@H]2O)[C@@H]1O` [Galβ1-4GlcNAcα-pNP], the “transferring activity for acceptor substrate (in words)” value [2] was “particularly strong activity; also recorded: highest transferring activity” and the Relative activity [2] was 100%.

For `[Cl-].[Cl-].[Zn+2]` [Zn, ZnCl2], the “effect of divalent metal ion” value [1, 5] was “no enhancing effect is substantially observed”.

B1: G9 polypeptide: novel human β1,3-N-acetyl-D-glucosaminyltransferase, FLAG peptide-fused, amino acids 26 to 397 of SEQ ID NO: 2 (SEQ ID NO: 16) (protein, listed as Homo sapiens)
chain: TSESRLSKAYPSPRGTPPSPTPANPEPTLPANLSTRLGQTIPLPFAYWNQQQWRLGSLPSGDSTETGGCQAWGAAAATEIPDFASYPKDLRRFLLSAACRSFPQWLPGGGGSQVSSCSDTDVPYLLLAVKSEPGRFAERQAVRETWGSPAPGIRLLFLLGSPVGEAGPDLDSLVAWESRRYSDLLLWDFLDVPFNQTLKDLLLLAWLGRHCPTVSFVLRAQDDAFVHTPALLAHLRALPPASARSLYLGEVFTQAMPLRKPGGPFYVPESFFEGGYPAYASGGGYVIAGRLAPWLLRAAARVAPFPFEDVYTGLCIRALGLVPQAHPGFLTAWPADRTADHCAFRNLLLVRPLGPQASIRLWKQLQDPRLQC
modifications: FLAG peptide
B1 was tested, and the “pH of maximum activity” value ([3]; HEPES buffer (pH 6.75 to 7.4), FIG. 2A) was about 7.0 and the “pH dependence of activity (in words)” value ([3]; sodium cacodylate buffer, pH 6.4 to 7.2, FIG. 2A) was “rises with an increase in pH”.

B2: ovalbumin (protein, UniProt P01012 2-386, looked up)
Ovalbumin: GSIGAASMEFCFDVFKELKVHHANENIFYCPIAIMSALAMVYLGAKDSTRTQINKVVRFDKLPGFGDSIEAQCGTSVNVHSSLRDILNQITKPNDVYSFSLASRLYAEERYPILPEYLQCVKELYRGGLEPINFQTAADQARELINSWVESQTNGIIRNVLQPSSVDSQTAMVLVNAIVFKGLWEKAFKDEDTQAMPFRVTEQESKPVQMMYQIGLFRVASMASEKMKILELPFASGTMSMLVLLPDEVSGLEQLESIINFEKLTEWTSSNVMEERKIKVYLPRMKMEEKYNLTSVLMAMGITDVFSSSANLSGISSAESLKISQAVHAAHAEINEAGREVVGSAEAGVDAASVSEEFRADHPFLFCIKHIATNAVLFFGRCVSP
notes: glycoprotein acceptor substrate manufactured by Sigma
B2 was tested, and the “GlcNAc-transferring activity for glycoprotein acceptor substrate (in words)” value [4] was “relatively weak activity”.
